Data set [1] in a line: Antioxidant activity assessed as DPPH radical scavenging activity after 30 mins by UV-spectrophotometry. Type of data set: physicochemical. On the technique in general: The DPPH test is a chemical assay of radical scavenging.
The nature of data set [2]: Antioxidant activity assessed as DPPH radical scavenging activity at <= 20 ug/ml after 30 mins by UV-spectrophotometry. Type of data set: physicochemical. The settings on record: 0.5 h.

Data on 6 compounds can be found in ChEMBL document CHEMBL3352682, “Unusual C,O-Fused Glycosylapigenins from Serjania marginata Leaves” (J Nat Prod, 2015).

≈ marks a conversion by molar mass, not a printed value.

Regarding `Oc1cc(O)c2c(c1)O[C@@]1(c3ccc(O)c(O)c3)Oc3cc(O)c4c(c3[C@@H]2[C@H]1O)O[C@H](c1ccc(O)c(O)c1)[C@H](O)[C@H]4c1c(O)cc(O)c2c1O[C@H](c1ccc(O)c(O)c1)[C@H](O)C2` [CINNAMTANNIN B1], in data set [1], the IC50 (usually the concentration that gives 50% inhibition) was found to be 5.3 µg/mL (≈ 6.13 µM). On to `C[C@@H]1O[C@@H](O[C@H]2C(=O)[C@@H](O)[C@H](C)O[C@@H]2c2c(O)cc(O)c3c(=O)cc(-c4ccc(O)cc4)oc23)[C@H](O)[C@H](O)[C@H]1O`, for which the 50% inhibitory concentration (IC50) result in data set [1] was “Not Active”. Also, in data set [2], the “inhibition (INH)” value is “Not Active”. As to `O=C(O)c1cc(O)c(O)c(O)c1` [GALLIC ACID], in data set [1], the IC50 worked out at 8.42 µg/mL (≈ 49.5 µM). With `C[C@@H]1O[C@@H](O[C@H]2C(=O)[C@@H](O)[C@H](C)O[C@@H]2c2c(O)cc3oc(-c4ccc(O)cc4)cc(=O)c3c2O)[C@H](O)[C@H](O)[C@H]1O`, in data set [1], the IC50 entry is on record as “Not Active”. In addition, the “inhibition (INH)” value in data set [2] was “Not Active”. Turning to `Oc1cc(O)c2c(c1)O[C@@]1(c3ccc(O)c(O)c3)Oc3cc(O)c4c(c3[C@@H]2[C@H]1O)O[C@H](c1ccc(O)c(O)c1)[C@H](O)C4` [PROANTHOCYANIDIN A2], the IC50 in data set [1] amounted to 9.71 µg/mL (≈ 16.8 µM). Same read-out and setting: for `Oc1cc(O)c2c(c1)O[C@@]1(c3ccc(O)c(O)c3)Oc3cc(O)c4c(c3[C@@H]2[C@H]1O)O[C@H](c1ccc(O)c(O)c1)[C@@H](O)C4` [PROANTHOCYANIDIN A1] the value was 8.55 µg/mL (≈ 14.8 µM).
